Data: patent US20090030086A1, “ANTIMICROBIAL AGENTS” (priority 2005, published 2009)
Converted amounts (≈) assume the structure as drawn. Read-outs that look alike come from different tables or passages of the source.

Tests used:
S. aureus ATCC 29213 [1] = assay: MBC assay; assay type: cell-based, Staphylococcus aureus
Summary of the method: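 Follows an MIC assay; samples sub-cultured onto non-selective agar and inspected visually for growth to give the minimum lethal concentration. Culture on Mueller-Hinton medium, pH 7.2, aerobic, 37° C, 24 hours.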

S. aureus ATCC 29213 [2] = assay: Supplemented disc diffusion assay; assay type: cell-based, Staphylococcus aureus; details: S. aureus ATCC 29213, 200 μg per disc (thymoquinone 50 μg, 2,6-dimethoxy-p-benzoquinone 100 μg); for zone of inhibition at 200 µg/disc: Staphylococcus aureus, ATCC29213, 24 h
Summary of the method: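 Paper discs loaded with compound (200 μg per disc for most assays) placed on inoculated Mueller-Hinton agar, pH 7.2, supplemented with 5% v/v defibrinated horse blood, 1% v/v Tween 80 and 100 mM NaCl. Aerobic incubation at 37° C for 24 h; inhibition zone diameter measured.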

P. acnes NCTC 737 [3] = assay: MIC assay; assay type: cell-based, Propionibacterium acnes; details: P. acnes NCTC 737, Wilkins-Chalgren broth pH 6.0, anaerobic, 37° C., 72 hours
Summary of the method: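 Broth microdilution in Wilkins-Chalgren Anaerobe broth pH 6.0, inoculated with freshly grown P. acnes NCTC 737 and incubated anaerobically at 37° C for 72 hours. MIC is the lowest compound concentration leaving the well visually clear, read on a light box. Run in duplicate with medium-only and solvent-plus-inoculum controls.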

P. acnes NCTC 737 [4] = assay: MBC assay; assay type: cell-based, Propionibacterium acnes; details: P. acnes NCTC 737
Summary of the method: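 Plates were then checked visually for growth. The MBC is the lowest lethal concentration; cultures were grown on Wilkins-Chalgren Anaerobe Medium at pH 6.0.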

S. aureus ATCC 29213 [5] = assay: MIC assay; assay type: cell-based, Staphylococcus aureus; details: S. aureus ATCC 29213, Mueller-Hinton broth pH 7.2, aerobic, 37° C., 24 hours
Summary of the method: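 Broth microdilution in Mueller-Hinton broth at pH 7.2, incubated aerobically at 37 °C for 24 h and run in duplicate with medium-only and solvent/inoculum controls. The MIC was the lowest concentration whose well stayed visibly clear.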

P. acnes NCTC 737 [6] = assay: Disc diffusion assay (DDA); assay type: cell-based, Propionibacterium acnes; details: P. acnes NCTC 737, unsupplemented agar, 200 μg per disc (2,6-dimethoxy-p-benzoquinone 100 μg)
P. acnes NCTC 737 [7] = assay: Supplemented disc diffusion assay; assay type: cell-based, Propionibacterium acnes; details: P. acnes NCTC 737, 200 μg per disc (2,6-dimethoxy-p-benzoquinone 100 μg); for zone of inhibition at 200 µg/disc: Cutibacterium acnes, NCTC737, 72 h
Summary of the method: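 Propionibacterium discs loaded with 200 μg compound on Wilkins-Chalgren Anaerobe agar, pH 6.0, supplemented with Tween 80 (1% v/v) and NaCl (100 mM); anaerobic incubation at 37 °C for 72 h. Inhibition zone diameter measured by automated zone sizer.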

S. aureus ATCC 29213 [8] = assay: Disc diffusion assay (DDA); assay type: cell-based, Staphylococcus aureus; details: S. aureus ATCC 29213, unsupplemented agar, 200 μg per disc (thymoquinone 50 μg, 2,6-dimethoxy-p-benzoquinone 100 μg)
Summary of the method: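 Paper discs loaded with test compound (usually 200 μg/disc), solvent evaporated ≥30 min, placed on inoculated Mueller-Hinton agar pH 7.2. Incubated aerobically at 37 °C for 24 h; inhibition zone diameter measured and area calculated as π(D/2)^2.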

[9] = Tween 80 at 1% v/v, read-out: DDA + lipid
[10] = sodium chloride 100 mM, read-out: DDA + salt

Cc1cc(O)cc(C)c1O [2,6-dimethyl-p-hydroquinone]
MBC (S. aureus ATCC 29213 [1]): 7.8 µg/mL (≈ 56.5 µM)
MIC/MBC ratio (S. aureus ATCC 29213 [1]): 0.5
DDA + lipid (S. aureus ATCC 29213 [2]; Tween 80 at 1% v/v): 47.94 mm
DDA + blood (S. aureus ATCC 29213 [2]; defibrinated horse blood 5% v/v): 25.53 mm
DDA + salt (S. aureus ATCC 29213 [2]; sodium chloride 100 mM): 43.89 mm
MIC (P. acnes NCTC 737 [3]): 7.8 µg/mL (≈ 56.5 µM)
MBC (P. acnes NCTC 737 [4]): 31.25 µg/mL (≈ 226 µM)
MIC/MBC ratio (P. acnes NCTC 737 [4]): 0.25
MIC (S. aureus ATCC 29213 [5]): 3.9 µg/mL (≈ 28.2 µM)
DDA (diameter of zone of inhibition) (P. acnes NCTC 737 [6]): 0.0 mm
DDA + lipid (P. acnes NCTC 737 [7]; Tween 80 at 1% v/v): 0.0 mm
DDA + salt (P. acnes NCTC 737 [7]; sodium chloride 100 mM): 0.0 mm
DDA (diameter of zone of inhibition) (S. aureus ATCC 29213 [8]): 40.88 mm

CC(C)(C)c1cc(C(C)(C)C)c(O)cc1O [4,6-di-t-butylresorcinol]
MIC/MBC ratio (S. aureus ATCC 29213 [1]): 0.5
MBC (S. aureus ATCC 29213 [1]; Staphylococcus aureus, ATCC29213, read-out: MBC): 15.6 µg/mL (≈ 70.2 µM)
zone of inhibition at 200 µg/disc (S. aureus ATCC 29213 [2]; [9]): 0 mm
zone of inhibition at 200 µg/disc (S. aureus ATCC 29213 [2]; defibrinated horse blood 5% v/v, read-out: DDA + blood): 0 mm
zone of inhibition at 200 µg/disc (S. aureus ATCC 29213 [2]; [10]): 8.4 mm
MIC (P. acnes NCTC 737 [3]; Cutibacterium acnes, NCTC737, read-out: MIC): 7.8 µg/mL (≈ 35.1 µM)
MBC (P. acnes NCTC 737 [4]; Cutibacterium acnes, NCTC737, read-out: MBC): 15.6 µg/mL (≈ 70.2 µM)
MIC/MBC ratio (P. acnes NCTC 737 [4]): 0.5
MIC (S. aureus ATCC 29213 [5]; Staphylococcus aureus, ATCC29213, read-out: MIC): 7.8 µg/mL (≈ 35.1 µM)
zone of inhibition at 200 µg/disc (P. acnes NCTC 737 [6]; Cutibacterium acnes, NCTC737, read-out: DDA (diameter of zone of inhibition)): 36.6 mm
zone of inhibition at 200 µg/disc (P. acnes NCTC 737 [7]; [9]): 0 mm
zone of inhibition at 200 µg/disc (P. acnes NCTC 737 [7]; [10]): 37.8 mm
zone of inhibition at 200 µg/disc (S. aureus ATCC 29213 [8]; Staphylococcus aureus, ATCC29213, read-out: DDA (diameter of zone of inhibition)): 8.09 mm
